Some test systems named below: ACHN renal; K-562 leukemia; NCI-H23 lung; OVCAR-4 ovarian; SK-MEL-5 melanoma; SNB-19 CNS; SNB-75 CNS; SW-620 colon; T-47D breast; KM12 colon.
What all share (assay): DTP human tumour cell line panel, 48 h

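In this assay, cells in 96-well plates receive the compound at five concentrations for 48 hours. Endpoints are linearly interpolated between the surrounding concentrations. The concentration for full growth arrest is given as TGI.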

As for `OC1CSCCSCCCSCCSC1`, the TGI in the experiment on ACHN renal, with K-562 leukemia, in the experiment on NCI-H23 lung, in the experiment on OVCAR-4 ovarian, in the experiment on SK-MEL-5 melanoma and in the experiment with SNB-19 CNS was greater than 100 µM throughout. Further, the TGI in the experiment with SNB-75 CNS, in the experiment with SW-620 colon and in the experiment on T-47D breast was greater than 100 µM throughout.
For the molecule `Brc1ccc(-c2nc(-c3ccc(Br)cc3)n(-c3ccccc3)n2)cc1`, the TGI with ACHN renal, in the experiment with KM12 colon, with NCI-H23 lung, in the experiment on OVCAR-4 ovarian, in the experiment on SK-MEL-5 melanoma and with SNB-19 CNS was greater than 100 µM throughout. Moreover, the TGI with SNB-75 CNS, with SW-620 colon and with T-47D breast was greater than 100 µM in each case.
For the molecule `COc1cccc2c1[C@H]1OC(=O)NC1CCCCC2` (stereo partly specified), the TGI with ACHN renal, with K-562 leukemia, in the experiment with KM12 colon, in the experiment on NCI-H23 lung, with OVCAR-4 ovarian and in the experiment with SK-MEL-5 melanoma was greater than 100 µM each time. The TGI in the experiment with SNB-19 CNS, in the experiment on SNB-75 CNS and in the experiment on SW-620 colon was greater than 100 µM throughout.
For `Cc1cc(OC(=O)Nc2ccc(Cl)cc2)ccc1C(=S)Nc1ccccc1`, the TGI in the experiment with ACHN renal, in the experiment with K-562 leukemia, in the experiment with KM12 colon, in the experiment on OVCAR-4 ovarian, with SK-MEL-5 melanoma and in the experiment on SNB-19 CNS was greater than 100 µM throughout. Further, the TGI in the experiment with SNB-75 CNS, with SW-620 colon and in the experiment on T-47D breast was greater than 100 µM each time.
On to `COC(=O)[C@]1(C)[C@H]2C[C@H]3O[C@H]4[C@H](O)[C@@H](O)OC(CC(O)C(C5=CC(=O)OC5)C(C5=CC(=O)OC5)C(O)CC56CCCCC7[C@@H](C)[C@H](C[C@H]8[C@](C)(C(=O)OC)[C@H](O)CC[C@]78C)O[C@H]([C@@H](O)[C@H](O)O5)[C@H]6O)(CCCCC([C@@H]3C)[C@]2(C)CC[C@@H]1O)[C@H]4O` (stereo partly specified), for which the TGI (commonly the concentration at which net growth stops) with K-562 leukemia is 1.73 µM; with KM12 colon, 1.97 µM; in the experiment on NCI-H23 lung, 0.318 µM; in the experiment on OVCAR-4 ovarian, 0.373 µM; with SK-MEL-5 melanoma, 0.129 µM; in the experiment with SNB-19 CNS, 1.12 µM. Also, the TGI in the experiment with SNB-75 CNS was 1.04 µM; in the experiment with SW-620 colon, 1.78 µM; in the experiment on T-47D breast, 6.62 µM.
With `CON(C)C(=O)C(C)NC(=O)OC(C)(C)C` (stereo unspecified), the TGI with ACHN renal, in the experiment on K-562 leukemia, in the experiment with KM12 colon, in the experiment on NCI-H23 lung, with SK-MEL-5 melanoma and with SNB-19 CNS was greater than 100 µM each time. Besides, the TGI in the experiment on SNB-75 CNS, in the experiment on SW-620 colon and in the experiment with T-47D breast was greater than 100 µM in each case.
As for `COc1ccc2c(C(=O)c3c(C)n(CCN4CCOCC4)c4ccccc34)cccc2c1`, the TGI is greater than 100 µM in the experiment on ACHN renal; greater than 100 µM in the experiment on K-562 leukemia; 68.2 µM with KM12 colon; greater than 100 µM in the experiment with NCI-H23 lung; greater than 100 µM in the experiment with OVCAR-4 ovarian; 35.2 µM in the experiment on SK-MEL-5 melanoma. Also, the values for the TGI in the experiment with SNB-19 CNS, in the experiment on SW-620 colon and in the experiment with T-47D breast were greater than 100 µM, 55.4 µM and greater than 100 µM, respectively.
Take `O=C1c2ccccc2/C=C\C(c2ccccc2)=N/N1c1ccccc1Cl`: the TGI in the experiment with ACHN renal is greater than 100 µM; in the experiment on K-562 leukemia it was greater than 100 µM; in the experiment with KM12 colon, 64.4 µM; in the experiment on NCI-H23 lung it was 93.6 µM; in the experiment on OVCAR-4 ovarian, 97.2 µM; with SK-MEL-5 melanoma, 26.3 µM. Further, the TGI with SNB-19 CNS is greater than 100 µM; with SNB-75 CNS, 97.8 µM; in the experiment on SW-620 colon it was greater than 100 µM.
Regarding `COCCOCCOCCC(=O)NC1CC2CCC1(C)C2(C)C` (stereo unspecified), the TGI in the experiment with ACHN renal, in the experiment with K-562 leukemia, in the experiment with KM12 colon, in the experiment with NCI-H23 lung, in the experiment with OVCAR-4 ovarian and in the experiment on SK-MEL-5 melanoma was greater than 100 µM in each case. In addition, the TGI in the experiment with SNB-19 CNS, in the experiment with SNB-75 CNS and in the experiment with SW-620 colon was greater than 100 µM each time.
For `COc1ccc(/C=N/n2c(Cc3ccccc3)n[nH]c2=O)cc1`, the TGI in the experiment on ACHN renal, in the experiment with K-562 leukemia, in the experiment with KM12 colon, in the experiment with NCI-H23 lung, in the experiment with OVCAR-4 ovarian and in the experiment with SNB-19 CNS was greater than 100 µM in each case. In addition, the TGI in the experiment with SNB-75 CNS, in the experiment on SW-620 colon and with T-47D breast was greater than 100 µM each time.
As to `C/C(=N\Nc1nc2ccccc2n1C)c1ccc2ccccc2n1`, the TGI with ACHN renal was greater than 54.5 µM; in the experiment with K-562 leukemia, 10.6 µM; in the experiment on KM12 colon it was 43.5 µM; with NCI-H23 lung it was 31 µM; in the experiment on OVCAR-4 ovarian it was 0.954 µM; in the experiment on SK-MEL-5 melanoma, 5.43 µM. Further, the TGI in the experiment on SNB-19 CNS is greater than 100 µM; with SNB-75 CNS, 46.4 µM; in the experiment with SW-620 colon it was 25.8 µM.
As to `CSC1(Cc2ccccn2)C(=O)Nc2cccc([N+](=O)[O-])c21` (stereo unspecified), the TGI with ACHN renal, in the experiment on KM12 colon, in the experiment on NCI-H23 lung, with OVCAR-4 ovarian, in the experiment with SK-MEL-5 melanoma and in the experiment with SNB-19 CNS was greater than 100 µM in each case. Moreover, the TGI in the experiment with SNB-75 CNS, in the experiment on SW-620 colon and in the experiment on T-47D breast was greater than 100 µM throughout.
Turning to `CC(=O)N1c2ccccc2[C@H]2CCc3c([nH]c4ccccc34)[C@H]21`, the concentration for total growth inhibition (TGI) in the experiment on ACHN renal is greater than 100 µM; in the experiment with K-562 leukemia it was 30.9 µM; in the experiment on KM12 colon it was 39.5 µM; in the experiment on NCI-H23 lung it was 31.2 µM; in the experiment with SK-MEL-5 melanoma, 26.2 µM; in the experiment with SNB-19 CNS, greater than 100 µM. For the same molecule, the TGI in the experiment on SNB-75 CNS was determined as 63 µM; in the experiment on SW-620 colon, 37.3 µM; with T-47D breast it was 96.9 µM.
Regarding `CCOC(=O)C(C)(Cc1ccc(O)cn1)NC(=O)c1ccccc1` (stereo unspecified), the TGI in the experiment with ACHN renal, with K-562 leukemia, in the experiment on KM12 colon, in the experiment with NCI-H23 lung, in the experiment on OVCAR-4 ovarian and with SK-MEL-5 melanoma was greater than 100 µM each time. In addition, the total growth inhibition concentration (TGI) in the experiment on SNB-19 CNS, in the experiment with SNB-75 CNS and with SW-620 colon was greater than 100 µM each time.

The record behind these values is PubChem BioAssay (NCI).
